Reference: patent US20160046592A1, “PHARMACEUTICAL COMPOSITION FOR THE TREATMENT OF DIABETES” (Ajinomoto Co., Inc., priority 2013, published 2016)
Counter-ions that a name gives are not always drawn.

Target: T1, PPAR-α (Homo sapiens, UniProt Q07869)
T1 construct: expressed in transfected cells; host or cells: CV-1 (African green monkey kidney)
T1 sequence (Q07869 167-468): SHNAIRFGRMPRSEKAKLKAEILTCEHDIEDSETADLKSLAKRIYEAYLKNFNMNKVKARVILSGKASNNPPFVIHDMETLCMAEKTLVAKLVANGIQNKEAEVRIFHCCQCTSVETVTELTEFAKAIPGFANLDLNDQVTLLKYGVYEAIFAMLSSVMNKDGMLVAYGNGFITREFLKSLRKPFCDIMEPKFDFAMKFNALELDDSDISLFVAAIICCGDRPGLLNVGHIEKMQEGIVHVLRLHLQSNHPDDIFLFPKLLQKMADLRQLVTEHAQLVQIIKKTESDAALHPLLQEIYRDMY
Assay: Measurement of PPAR-α activity (GAL4 luciferase reporter assay in CV-1 cells)
Format: cell-based
Settings: 100(A/B): A = maximum PPAR-α activity of test compound at 3, 10, 30 and 100 μM, B = activity of the compound of WO/2011/058154 at 100 μM, 18 to 20 hours, read-out: Relative fold induction (%) of PPAR α
Procedure, shortened: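 CV-1 cells were co-transfected with a UAS×5-TK-Luc reporter and a hGR-GAL4-hPPARα (LBD 167-468aa) expression plasmid, then dosed with compound for 18 to 20 h at 37 °C, with Bright-Glo luciferase read-out. Relative fold induction (%) is the maximum activity at 3, 10, 30 or 100 μM divided by the activity of a WO/2011/058154 reference compound at 100 μM.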

Emax	Structure (SMILES)
14%	COC[C@@H]1CC[C@@H](C(=O)O)N1C(=O)c1cccc(COc2ccc(-c3cc(F)c(F)cc3SC)cc2)c1 [Example 62, (2S,5S)-1-[3-[[4-(4,5-Difluoro-2-methylsulfanyl-phenyl)phenoxy]methyl]benzoyl]-5-(methoxymethyl)pyrrolidine-2-carboxylic Acid]
13%	CSc1cc(F)c(F)cc1-c1ccc(OCc2cccc(C(=O)N3C[C@H](N(C)C)C[C@H]3C(=O)O)c2)cc1 [Example 63, (2S,4R)-1-[3-[[4-(4,5-Difluoro-2-methylsulfanyl-phenyl)phenoxy]methyl]benzoyl]-4-(dimethylamino)pyrrolidine-2-carboxylic Acid Trifluoroacetate]
